Assay results reported in the NIST ThermoML archive (doi:10.1016/j.tca.2006.01.020).

Experiment: molar heat capacity at constant pressure
Conditions: 101.33 kPa, Crystal, Small (less than 1 g) adiabatic calorimetry

[Ba+2].[Ce+4].[O-2].[O-2].[O-2] [barium cerium(IV) oxide]
Conditions	molar heat capacity at constant pressure [J/K/mol]
1.721 K	0.00113
1.726 K	0.00106
1.733 K	0.00113
1.761 K	0.00102
1.781 K	0.00108
1.833 K	0.00116
1.87 K	0.00103
1.904 K	0.00103
1.995 K	0.00167
2.042 K	0.00152
2.096 K	0.00138
2.134 K	0.00153
2.178 K	0.0019
2.817 K	0.00505
2.844 K	0.00578
2.877 K	0.0056
3.154 K	0.00691
3.175 K	0.00697
3.25 K	0.00798
3.258 K	0.00871
3.318 K	0.00829
3.349 K	0.00913
3.382 K	0.00944
3.471 K	0.0093
3.57 K	0.01
3.673 K	0.0107
3.834 K	0.0118
3.983 K	0.0132
4.14 K	0.0143
4.241 K	0.0157
4.384 K	0.0171
4.454 K	0.0187
4.608 K	0.0193
4.68 K	0.0211
4.756 K	0.0223
4.835 K	0.0232
4.911 K	0.0245
4.992 K	0.026
5.071 K	0.0274
5.152 K	0.0284
5.227 K	0.0294
5.296 K	0.0316
5.375 K	0.0321
5.441 K	0.0353
5.536 K	0.0361
5.614 K	0.0388
5.697 K	0.0405
5.78 K	0.0425
5.861 K	0.0448
5.946 K	0.0466
6.034 K	0.0491
6.119 K	0.0516
6.209 K	0.0536
6.297 K	0.0571
6.366 K	0.057
6.457 K	0.0616
6.548 K	0.0639
6.647 K	0.0675
6.739 K	0.0705
6.841 K	0.0743
6.93 K	0.0778
7.04 K	0.0831
7.13 K	0.0857
7.24 K	0.0907
7.34 K	0.0935
7.45 K	0.0993
7.55 K	0.103
7.66 K	0.11
7.76 K	0.115
7.89 K	0.123
8 K	0.129
8.13 K	0.138
8.25 K	0.145
8.38 K	0.156
8.5 K	0.164
8.64 K	0.176
8.77 K	0.185
8.91 K	0.201
9.04 K	0.209
9.17 K	0.221
9.32 K	0.241
9.46 K	0.251
9.59 K	0.266
9.75 K	0.289
9.92 K	0.309
10 K	0.318
10.08 K	0.328
10.23 K	0.348
10.4 K	0.377
10.58 K	0.4
10.76 K	0.433
10.94 K	0.461
11.1 K	0.489
11.3 K	0.534
11.48 K	0.561
11.68 K	0.61
11.89 K	0.651
12.09 K	0.7
12.29 K	0.744
12.5 K	0.806
12.72 K	0.859
12.93 K	0.919
13.15 K	0.983
13.37 K	1.05
13.59 K	1.12
13.82 K	1.2
14.05 K	1.28
14.28 K	1.36
14.51 K	1.45
14.74 K	1.54
14.97 K	1.63
15.21 K	1.73
15.44 K	1.83
15.68 K	1.93
15.91 K	2.05
16.15 K	2.16
16.38 K	2.26
16.6 K	2.38
16.84 K	2.51
17.09 K	2.62
17.32 K	2.75
17.55 K	2.89
17.79 K	3.02
18.03 K	3.16
18.27 K	3.3
18.52 K	3.44
18.76 K	3.58
19 K	3.73
19.23 K	3.89
19.47 K	4.05
19.73 K	4.19
19.98 K	4.35
20 K	4.411
20.2 K	4.52
20.44 K	4.68
20.69 K	4.84
20.94 K	5
21.17 K	5.2
21.41 K	5.36
21.66 K	5.54
21.91 K	5.7
22.16 K	5.88
22.39 K	6.07
22.63 K	6.26
22.88 K	6.44
23.14 K	6.62
23.38 K	6.81
23.62 K	7
23.86 K	7.2
24.1 K	7.39
24.36 K	7.58
24.61 K	7.76
24.86 K	7.96
25.1 K	8.19
25.34 K	8.4
25.6 K	8.57
25.86 K	8.77
26.1 K	8.98
26.34 K	9.19
26.57 K	9.41
26.83 K	9.6
27.09 K	9.8
27.35 K	9.96
27.6 K	10.2
27.83 K	10.4
28.07 K	10.7
28.33 K	10.8
28.59 K	10.7
28.92 K	11.3
29.29 K	11.6
29.83 K	12.1
30 K	12.33
30.39 K	12.6
30.99 K	13.1
31.6 K	13.6
32.23 K	14.1
32.89 K	14.7
33.56 K	15.3
34.26 K	15.9
34.97 K	16.5
35.7 K	17.1
36.44 K	17.8
37.19 K	18.4
37.95 K	19.1
38.72 K	19.8
39.5 K	20.4
40 K	21.08
40.3 K	21.1
41.1 K	21.8
41.92 K	22.5
42.76 K	23.2
43.61 K	24
44.48 K	24.7
45.36 K	25.5
46.27 K	26.2
47.24 K	26.9
48.19 K	27.7
49.16 K	28.5
50 K	29.66
50.15 K	29.4
51.15 K	30.2
52.16 K	31
53.16 K	31.8
54.16 K	32.6
55.16 K	33.5
56.16 K	34.3
57.16 K	35.1
58.15 K	35.9
59.14 K	36.7
60 K	37.42
60.13 K	37.4
61.12 K	38.2
62.11 K	39
63.1 K	39.7
64.09 K	40.5
65.08 K	41.3
66.07 K	42
67.07 K	42.8
68.06 K	43.6
69.05 K	44.3
70 K	44.66
70.05 K	45
71.04 K	45.8
72.03 K	46.6
73.03 K	47.3
74.02 K	47.8
75.02 K	48.6
76.02 K	49.2
77.02 K	49.9
78.02 K	50.6
79.01 K	50.7
80 K	51.2
80.01 K	51.5
80.29 K	51
81.69 K	51.5
82.49 K	52
83.31 K	52.5
84.14 K	53.1
84.98 K	53.7
85.82 K	54.2
86.68 K	54.7
87.55 K	55.3
88.43 K	55.8
89.31 K	56.3
90 K	57.18
90.21 K	56.9
91.11 K	57.4
92.02 K	58
92.94 K	58.5
93.87 K	59.1
94.81 K	59.7
95.75 K	60.2
96.71 K	60.8
97.68 K	61.3
98.65 K	61.9
99.64 K	62.4
100 K	62.7
100.64 K	63
101.64 K	63.6
102.66 K	64.1
103.69 K	64.7
104.72 K	65.2
105.77 K	65.8
106.83 K	66.4
107.9 K	66.9
108.97 K	67.4
110.06 K	67.7
111.16 K	68.5
112.27 K	69.1
113.4 K	69.7
114.53 K	70.2
115.68 K	70.8
116.83 K	71.4
118 K	71.9
119.18 K	72.4
120 K	72.61
120.37 K	73
121.58 K	73.5
122.79 K	74
124.02 K	74.6
125.26 K	75.1
126.51 K	75.7
127.77 K	76.2
129.05 K	76.8
130.34 K	77.3
131.64 K	77.9
132.96 K	78.4
134.29 K	78.9
135.63 K	79.4
136.99 K	79.9
138.36 K	80.4
139.74 K	80.9
140 K	81.2
141.54 K	81.6
142.95 K	82.2
144.38 K	82.8
145.83 K	83.2
147.28 K	83.8
148.76 K	84.5
150.25 K	85
151.75 K	85.6
153.27 K	86.1
154.8 K	86.6
156.34 K	87.3
157.91 K	87.8
159.49 K	88.2
160 K	88.53
161.08 K	88.9
162.69 K	89.3
164.32 K	89.9
165.96 K	90.3
167.62 K	90.8
169.3 K	91.2
170.99 K	91.8
172.7 K	92.4
174.43 K	92.9
176.17 K	93.5
177.93 K	94
179.71 K	94.3
180 K	94.63
181.5 K	95.2
183.31 K	95.3
185.15 K	95.9
187 K	96.4
188.86 K	97.1
190.75 K	97.8
192.65 K	98
194.58 K	98.2
196.52 K	98.2
198.48 K	98.6
200 K	99.59
200.46 K	99.2
202.45 K	99.5
204.43 K	100
206.42 K	101
208.4 K	101.1
210.39 K	101.6
212.37 K	101.7
214.35 K	102.5
216.33 K	102.8
218.31 K	103.5
220 K	103.6
220.3 K	103.8
222.28 K	103.6
224.26 K	104.2
226.23 K	105.1
228.22 K	105
230.2 K	105.5
232.17 K	106.2
234.15 K	106.2
236.14 K	106.1
238.1 K	106.8
240 K	106.9
240.08 K	106.6
242.05 K	107.3
244.02 K	107.1
245.99 K	107.7
249.95 K	108.3
251.89 K	108.9
253.89 K	109.5
255.86 K	109.5
257.84 K	109.2
259.8 K	110.2
260 K	109.9
261.77 K	109.7
263.74 K	110.1
267.67 K	111
269.63 K	110.4
271.61 K	110.6
273.57 K	111.4
275.53 K	111.7
277.5 K	111.9
279.46 K	112.8
280 K	112.6
281.42 K	112.8
283.39 K	112
285.35 K	114
287.3 K	114.2
289.27 K	113.1
291.22 K	113.8
293.17 K	114.3
294.05 K	113.5
297.48 K	114.1
298.15 K	114.8
299.16 K	114.5
300 K	114.9
